# Tested on: TP53
# Assay: TP53 variant allele frequency by serial targeted next-generation sequencing
# Format: in vivo, human
# Description: Mutations in germline and serial bone marrow or blood samples were determined by targeted next-generation sequencing (NGS). NGS aligned read files are available in the NCBI’s Sequence Read Archive under accession PRJNA1236309. See Supplementary Methods for details.
# Genomic DNA was isolated from cryopreserved cells with QIAmp DNA Mini Kit (Qiagen) and fragmented using ME220 Focused-ultrasonicator (Covaris; SCR_019818). Libraries were generated using xGen™ DNA Lib Prep MC UNI kit and target capture was done using xGen AML Cancer Hybridization Panel in conjunction with a 3 gene spike-in pool for ZRSR2, AXL, and ASXL2 (Integrated DNA Technologies). DNA library preparations were performed according to the manufacturer’s instructions and sequenced on an Illumina Novaseq (OSUCCC Genomics Shared Resource) (SCR_016387). Sequenced reads were aligned to the GRCh38 genome build using the Burrows-Wheeler Aligner (BWA) (SCR_010910). Picard Tools was used to perform UMI-consensus calling on the aligned reads. The Genome Analysis Toolkit (GATK) (SCR_001876) was used to realign insertions and deletions in the aligned reads and to perform base quality score recalibration for those realigned regions. GATK’s MuTect2 (SCR_026692) was used to perform variant calling. After variant calling, variants were annotated using SnpEff (SCR_005191) and vcfanno (SCR_024372) along with the dbsnp (SCR_002338), COSMIC (SCR_002260), and gnomad variant databases (SCR_014964). The Mucor3 algorithm was used as the baseline for integrative mutation assessment. Visual inspection of all variants was carried out using Integrative Genomics Viewer v.2.8 (Broad Institute).
smiles,measurement,setting,value
"CN1CCN(Cc2ccc(Nc3ncc(Cl)c(Nc4ccccc4S(=O)(=O)N(C)C)n3)cc2)CC1.O=C(O)C(O)C(O)C(=O)O.O=C(O)C(O)C(O)C(=O)O [TP-0903, 2-(5-chloro-2-(4-((4-methylpiperazin-1-yl)methyl)phenylamino)pyrimidin-4-yl)amino-N,N-dimethylbenzene-1-sulfonamide di-tartrate salt]",Change in TP53 VAF,"patients who achieved CR, n = 5, P < 0.01",significantly decreased
same,Change in TP53 VAF,"patients who achieved CRh/CRi/MLFS, n = 7, P < 0.01",significantly decreased
same,Change in TP53 VAF,"patients who had SD, treatment failure, or early death, n = 3",not significantly changed

# From article PMC12257073 (Cancer Research Communications, 2025)
